Experimental data published in patent publication US9902696B2, “1,4-substituted piperidine derivatives” (Cephalon, Inc., priority 2015, dated 2018).
pIC50: −log10 of the molar value. Where two headings read alike, the source gives them in different places.

What was measured:
[1] = target: T1, recombinant human baculovirus-expressed GST-tagged FASN (Homo sapiens, UniProt P49327); assay: FASN enzyme activity assay, fluorescence-based detection of CoA with CPM; type: biochemical; settings: 5 nM FASN, 150 μM NADPH, 10 μM acetyl-CoA, 25 μM malonyl-CoA, 90 minutes incubation
T1 construct: GST
T1 sequence (P49327 whole entry): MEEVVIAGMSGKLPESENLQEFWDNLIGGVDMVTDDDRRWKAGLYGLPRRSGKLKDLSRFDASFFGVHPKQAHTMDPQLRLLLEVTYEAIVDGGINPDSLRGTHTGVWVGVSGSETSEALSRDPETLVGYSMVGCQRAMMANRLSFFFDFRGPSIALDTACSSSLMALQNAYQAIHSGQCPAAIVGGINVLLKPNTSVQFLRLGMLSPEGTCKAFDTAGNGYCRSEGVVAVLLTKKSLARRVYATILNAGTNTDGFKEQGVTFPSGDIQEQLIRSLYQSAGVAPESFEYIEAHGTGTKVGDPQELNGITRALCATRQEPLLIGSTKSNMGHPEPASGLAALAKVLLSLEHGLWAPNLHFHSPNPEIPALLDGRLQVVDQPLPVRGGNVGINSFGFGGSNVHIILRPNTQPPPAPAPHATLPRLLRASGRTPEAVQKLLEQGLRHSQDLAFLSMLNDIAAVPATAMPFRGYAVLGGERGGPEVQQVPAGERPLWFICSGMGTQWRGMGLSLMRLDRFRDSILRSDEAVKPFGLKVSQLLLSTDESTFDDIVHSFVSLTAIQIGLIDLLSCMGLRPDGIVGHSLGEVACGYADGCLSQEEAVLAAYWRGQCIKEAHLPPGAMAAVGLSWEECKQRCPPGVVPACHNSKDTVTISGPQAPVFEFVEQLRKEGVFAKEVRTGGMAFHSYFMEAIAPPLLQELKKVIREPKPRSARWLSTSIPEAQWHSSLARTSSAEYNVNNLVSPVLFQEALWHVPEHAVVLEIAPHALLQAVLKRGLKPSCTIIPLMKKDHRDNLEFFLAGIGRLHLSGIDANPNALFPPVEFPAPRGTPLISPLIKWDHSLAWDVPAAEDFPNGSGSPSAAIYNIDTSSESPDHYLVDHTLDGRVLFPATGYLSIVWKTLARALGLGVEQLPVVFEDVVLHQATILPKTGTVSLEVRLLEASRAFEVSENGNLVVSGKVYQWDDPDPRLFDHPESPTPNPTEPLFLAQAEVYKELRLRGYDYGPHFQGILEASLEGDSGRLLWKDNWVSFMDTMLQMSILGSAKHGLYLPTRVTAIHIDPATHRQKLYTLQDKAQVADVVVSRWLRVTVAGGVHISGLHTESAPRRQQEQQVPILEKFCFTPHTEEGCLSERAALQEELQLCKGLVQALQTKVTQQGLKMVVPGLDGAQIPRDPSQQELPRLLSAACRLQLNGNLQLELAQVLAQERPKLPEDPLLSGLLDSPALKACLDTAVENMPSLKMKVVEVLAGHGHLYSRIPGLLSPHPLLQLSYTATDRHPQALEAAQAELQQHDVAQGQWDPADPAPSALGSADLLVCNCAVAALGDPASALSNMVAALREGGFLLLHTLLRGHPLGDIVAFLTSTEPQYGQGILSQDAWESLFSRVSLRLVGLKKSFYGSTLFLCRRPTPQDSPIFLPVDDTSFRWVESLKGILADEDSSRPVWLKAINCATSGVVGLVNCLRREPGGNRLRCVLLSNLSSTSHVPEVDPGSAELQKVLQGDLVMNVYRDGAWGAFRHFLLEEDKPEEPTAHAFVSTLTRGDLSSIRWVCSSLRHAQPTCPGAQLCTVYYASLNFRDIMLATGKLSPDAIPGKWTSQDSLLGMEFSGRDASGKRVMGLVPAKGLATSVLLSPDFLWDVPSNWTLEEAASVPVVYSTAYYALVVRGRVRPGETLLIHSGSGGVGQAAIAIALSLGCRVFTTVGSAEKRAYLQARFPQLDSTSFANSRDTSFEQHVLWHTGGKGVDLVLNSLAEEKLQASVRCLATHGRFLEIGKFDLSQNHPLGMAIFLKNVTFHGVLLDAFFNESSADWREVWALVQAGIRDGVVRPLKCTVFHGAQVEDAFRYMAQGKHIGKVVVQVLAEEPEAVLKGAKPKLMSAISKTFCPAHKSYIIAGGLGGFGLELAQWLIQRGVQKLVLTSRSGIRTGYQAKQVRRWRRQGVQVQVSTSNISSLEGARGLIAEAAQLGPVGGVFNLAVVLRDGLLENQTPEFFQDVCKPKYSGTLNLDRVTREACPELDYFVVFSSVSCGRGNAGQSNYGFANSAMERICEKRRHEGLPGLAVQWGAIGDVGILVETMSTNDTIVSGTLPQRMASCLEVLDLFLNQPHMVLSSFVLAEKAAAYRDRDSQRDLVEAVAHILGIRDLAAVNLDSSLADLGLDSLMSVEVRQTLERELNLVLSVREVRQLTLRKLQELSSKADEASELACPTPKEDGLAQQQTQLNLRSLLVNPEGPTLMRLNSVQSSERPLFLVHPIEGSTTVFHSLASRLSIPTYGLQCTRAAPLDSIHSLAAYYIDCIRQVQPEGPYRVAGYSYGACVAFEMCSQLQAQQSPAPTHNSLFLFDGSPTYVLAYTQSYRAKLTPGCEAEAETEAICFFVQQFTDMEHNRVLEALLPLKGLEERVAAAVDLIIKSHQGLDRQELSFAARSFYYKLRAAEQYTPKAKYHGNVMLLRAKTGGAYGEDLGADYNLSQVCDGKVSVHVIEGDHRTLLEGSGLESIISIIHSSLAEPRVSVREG
Outline: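 CoA product reacted with thiol-reactive CPM (diluted to 50 μM in 70% ethanol), read at 390/530 nm after 30 min. Preceding reaction: 90 min, 5 nM recombinant GST-FASN, 150 μM NADPH, 10 μM acetyl-CoA, 25 μM malonyl-CoA, pH 7.5 HEPES, 0.5% DMSO. IC50s fitted by nonlinear sigmoidal regression.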

[2] = read-out: IC50 data for Compounds of Formulae I-V/V(a): Activity
[3] = read-out: IC50 data for Additional Compounds of Formulae I-V(a): Activity

Row | SMILES | melting point [°C] | pIC50 [1, 2] | pIC50 [1, 3]
1 | O=C(C1CC1)N1CC(Oc2ccc(-c3cnc4ccccc4c3)cc2)C1 [Example 340, Cyclopropyl(3-(4-(quinolin-3-yl)phenoxy)azetidin-1-yl)methanone] | 187 | 5.00 to 6.00 | –
2 | CC(C)CONC(=O)N1CCC(Oc2ccc(-c3ccc4nccn4c3Cl)cc2)CC1 [Example 571, 4-[4-(5-Chloroimidazo[1,2-a]pyridin-6-yl)phenoxy]-N-isobutoxy-piperidine-1-carboxamide] | 157 | – | 5.00 to 6.00
3 | Cc1nccc2cc(-c3ccc(OC4CCN(C(=O)NCC5CC5)CC4)cc3)ccc12 [Example 582, N-(Cyclopropylmethyl)-4-[4-(1-methyl-6-isoquinolyl)phenoxy]piperidine-1-carboxamide] | 188 | – | 5.00 to 6.00
4 | O=C(NCC1CC1)N1CCC(Oc2ccc(-c3ccc4nccn4c3Cl)cc2)CC1 [Example 568, 4-[4-(5-Chloroimidazo[1,2-a]pyridin-6-yl)phenoxy]-N-(cyclopropylmethyl)-piperidine-1-carboxamide] | 183 to 185 | – | 5.00 to 6.00
5 | CCONC(=O)N1CCC(Oc2ccc(-c3ccc4c(C)nccc4c3)cc2)CC1 [Example 586, N-Ethoxy-4-[4-(1-methyl-6-isoquinolyl)phenoxy]piperidine-1-carboxamide] | 208 | – | 5.00 to 6.00
6 | CCC(=O)N1CCC(Oc2ncc(-c3cnc4ccccc4c3)cn2)CC1 [Example 143, 1-[4-(5-Quinolin-3-yl-pyrimidin-2-yloxy)-piperidin-1-yl]-propan-1-one] | 162 to 166 | 5.00 to 6.00 | –
7 | COCCNC(=O)N1CCC(Oc2ccc(-c3ccc4nccn4c3Cl)cc2)CC1 [Example 567, 4-[4-(5-Chloroimidazo[1,2-a]pyridin-6-yl)phenoxy]-N-(2-methoxyethyl)-piperidine-1-carboxamide] | 135 to 138 | – | 6.00 to 7.00
8 | O=C(NO)N1CCC(Oc2ccc(-c3ccc4nccn4c3Cl)cc2)CC1 [Example 575, 4-[4-(5-Chloroimidazo[1,2-a]pyridin-6-yl)phenoxy]piperidine-1-carbohydroxamic acid] | 232 | – | 7.00 to 9.00
9 | CCNC(=O)N1CCC(Oc2ccc(-c3ccc4c(C)nccc4c3)cc2)CC1 [Example 578, N-Ethyl-4-[4-(1-methyl-6-isoquinolyl)phenoxy]piperidine-1-carboxamide] | 211 | – | 5.00 to 6.00
10 | Cc1nccc2cc(-c3ccc(OC4CCN(C(=O)NCC(C)C)CC4)cc3)ccc12 [Example 580, N-Isobutyl-4-[4-(1-methyl-6-isoquinolyl)phenoxy]piperidine-1-carboxamide] | 157 | – | 7.00 to 9.00
11 | CCONC(=O)N1CCC(Oc2ccc(-c3cnc4ccccc4c3C)cc2)CC1 [Example 587, N-Ethoxy-4-[4-(4-methyl-3-quinolyl)phenoxy]piperidine-1-carboxamide] | 152 | – | 7.00 to 9.00
12 | CCCONC(=O)N1CCC(Oc2ccc(-c3ccc4c(C)nccc4c3)cc2)CC1 [Example 584, 4-[4-(1-Methyl-6-isoquinolyl)phenoxy]-N-propoxypiperidine-1-carboxamide] | 165 | – | 7.00 to 9.00
13 | CC(C)NC(=O)N1CCC(Oc2ccc(-c3ccc4nccn4c3Cl)cc2)CC1 [Example 570, 4-[4-(5-Chloroimidazo[1,2-a]pyridin-6-yl)phenoxy]-N-isopropyl-piperidine-1-carboxamide] | 220 | – | 7.00 to 9.00
14 | CCCCNC(=O)N1CCC(Oc2ccc(-c3ccc4nccn4c3Cl)cc2)CC1 [Example 563, N-Butyl-4-[4-(5-chloroimidazo[1,2-a]pyridin-6-yl)phenoxy]piperidine-1-carboxamide] | 171 to 177 | – | 7.00 to 9.00
15 | Cc1nccc2cc(-c3ccc(OC4CCN(C(N)=O)CC4)cc3)ccc12 [Example 581, 4-[4-(1-Methyl-6-isoquinolyl)phenoxy]piperidine-1-carboxamide] | 232 | – | 7.00 to 9.00
16 | CC(C)CC(=O)N1CC(Oc2ccc(-c3cnc4ccccc4c3)cc2)C1 [Example 341, 3-Methyl-1-(3-(4-(quinolin-3-yl)phenoxy)azetidin-1-yl)butan-1-one] | 201 | 5.00 to 6.00 | –
17 | CCCNC(=O)N1CCC(Oc2ccc(-c3cnc4ccccc4c3C)cc2)CC1 [Example 591, 4-[4-(4-Methyl-3-quinolyl)phenoxy]-N-propyl-piperidine-1-carboxamide] | 171 | – | 7.00 to 9.00
18 | CCCNC(=O)N1CCC(Oc2ccc(-c3ccc4c(C)nccc4c3)cc2)CC1 [Example 579, 4-[4-(1-Methyl-6-isoquinolyl)phenoxy]-N-propyl-piperidine-1-carboxamide] | 181 | – | 6.00 to 7.00
19 | Cc1nccc2cc(-c3ccc(OC4CCN(C(=O)NO)CC4)cc3)ccc12 [Example 585, 4-[4-(1-Methyl-6-isoquinolyl)phenoxy]piperidine-1-carbohydroxamic acid] | 185 | – | 6.00 to 7.00
20 | Cc1c(-c2ccc(OC3CCN(C(=O)NCC(C)C)CC3)cc2)cnc2ccccc12 [Example 590, N-Isobutyl-4-[4-(4-methyl-3-quinolyl)phenoxy]piperidine-1-carboxamide] | 153 | – | 7.00 to 9.00
21 | CC(C)ONC(=O)N1CCC(Oc2ccc(-c3ccc4nccn4c3Cl)cc2)CC1 [Example 569, 4-[4-(5-Chloroimidazo[1,2-a]pyridin-6-yl)phenoxy]-N-isopropoxy-piperidine-1-carboxamide] | 175 | – | 6.00 to 7.00
22 | CC(C)CCNC(=O)N1CCC(Oc2ccc(-c3ccc4nccn4c3Cl)cc2)CC1 [Example 572, 4-[4-(5-Chloroimidazo[1,2-a]pyridin-6-yl)phenoxy]-N-isopentyl-piperidine-1-carboxamide] | 185 | – | 5.00 to 6.00
23 | CC(C)C(=O)N1CC(Oc2ccc(-c3cnc4ccccc4c3)cc2)C1 [Example 339, 2-Methyl-1-(3-(4-(quinolin-3-yl)phenoxy)azetidin-1-yl)propan-1-one] | 162 | 5.00 to 6.00 | –
